# ChEMBL document CHEMBL1154710, “Synthesis, anti-inflammatory and anticancer activity evaluation of some novel acridine derivatives” (2010)
# Experiments:
# Format in all cases: functional
# MCF7 = experiment: Growth inhibition of human MCF7 cells at 10 uM after 48 hrs by SRB assay; settings: MCF7, 48 h, read-out: GI
# HEp-2 = experiment: Growth inhibition of human Hep2 cells at 10 uM after 48 hrs by SRB assay; settings: HEp-2, 48 h, read-out: GI
# [1] = Growth inhibition of human 502713 cells at 10 uM after 48 hrs by SRB assay; settings: Homo sapiens, 502713, 48 h; read-out: GI
# A549 = experiment: Growth inhibition of human A549 cells at 10 uM after 48 hrs by SRB assay; settings: A549, 48 h, read-out: GI
# Rattus norvegicus = experiment: Antiinflammatory activity in albino Charles-Foster rat assessed as inhibition of carrageenan-induced paw oedema at 50 mg/kg, po administered 30 mins before carrageenan challenge […] after 1-3 hrs relative to control; set-up: scale not given: the % may be the effect or the level left
# COLO 205 = experiment: Growth inhibition of human COLO205 cells at 10 uM after 48 hrs by SRB assay; settings: COLO 205, 48 h, read-out: GI
# IMR-32 = experiment: Growth inhibition of human IMR32 cells at 10 uM after 48 hrs by SRB assay; settings: IMR-32, 48 h, read-out: GI
# HCT-15 = experiment: Growth inhibition of human HCT15 cells at 10 uM after 48 hrs by SRB assay; settings: HCT-15, 48 h, read-out: GI
# OVCAR-5 = experiment: Growth inhibition of human OVCAR5 cells at 10 uM after 48 hrs by SRB assay; settings: OVCAR-5, 48 h, read-out: GI
# PC-3 = experiment: Growth inhibition of human PC3 cells at 10 uM after 48 hrs by SRB assay; settings: PC-3, 48 h, read-out: GI
# DU-145 = experiment: Growth inhibition of human DU145 cells at 10 uM after 48 hrs by SRB assay; settings: DU-145, 48 h, read-out: GI
Structure (SMILES),inhibition of growth at 10 µM (MCF7) [%],inhibition of growth at 10 µM (HEp-2) [%],inhibition of growth at 10 µM [1] [%],inhibition of growth at 10 µM (A549) [%],Activity (Rattus norvegicus) [%],inhibition of growth at 10 µM (COLO 205) [%],inhibition of growth at 10 µM (IMR-32) [%],inhibition of growth at 10 µM (HCT-15) [%],inhibition of growth at 10 µM (OVCAR-5) [%],inhibition of growth at 10 µM (PC-3) [%],inhibition of growth at 10 µM (DU-145) [%]
COc1cccc2c(NCC3CCCO3)c3ccccc3nc12 (racemic),52,34,60,56,0,66,69,64,,,
Cc1cccc2c(NCCc3cccs3)c3ccccc3nc12,73,41,,,33.09,79,,,6,52,41
Cc1cccc2c(NC(=S)NCCc3c[nH]c4ccccc34)c3ccccc3nc12,95,96,90,84,35.77,98,67,,,,
COc1ccc2nc3ccccc3c(NCCc3c[nH]c4ccccc34)c2c1,42,9,,,31.33,0,,,23,51,25
Cc1cccc2c(NC(=S)NCC3CCCO3)c3ccccc3nc12 (racemic),99,14,95,96,25.35,71,21,,,,
Cc1cccc2c(NCC3CCCO3)c3ccccc3nc12 (racemic),45,18,,,34.02,46,,,54,61,17
Cc1cccc2c(NCCc3c[nH]c4ccccc34)c3ccccc3nc12,53,23,,,31.03,69,,,51,53,42
COc1ccc2nc3ccccc3c(NC(=S)NCc3ccco3)c2c1,35,26,45,37,30.98,23,71,61,,,
COc1ccc2nc3ccccc3c(NCCc3cccs3)c2c1,44,52,67,20,41.17,69,89,78,,,
COc1ccc2nc3ccccc3c(NCc3ccco3)c2c1,44,56,65,35,22.96,88,95,80,,,
COc1cccc2c(NCCc3c[nH]c4ccccc34)c3ccccc3nc12,78,75,63,49,39.69,84,99,91,,,
Cc1cccc2c(NC(=S)NCCc3cccs3)c3ccccc3nc12,92,67,71,53,30.7,19,42,,,,
COc1cccc2c(NCCc3cccs3)c3ccccc3nc12,37,62,67,61,26.05,24,78,73,,,
Cc1cccc2c(NCc3ccco3)c3ccccc3nc12,58,51,52,52,0,72,86,74,,,
CO[C@@]12[C@H](COC(N)=O)C3=C(C(=O)C(C)=C(N)C3=O)N1C[C@@H]1N[C@@H]12 [MITOMYCIN],,58,44,40,,4,85,25,,,
COc1cccc2c1C(=O)c1c(O)c3c(c(O)c1C2=O)C[C@@](O)(C(=O)CO)C[C@@H]3O[C@H]1C[C@H](N)[C@H](O)[C@H](C)O1 [DOXORUBICIN],48,55,28,44,,34,86,93,,,
Cc1cccc2c(NC(=S)NCc3ccco3)c3ccccc3nc12,94,61,95,46,32.33,88,5,,,,
O=c1[nH]cc(F)c(=O)[nH]1 [FLUOROURACIL],0,29,40,0,,25,58,29,,,
CC(C)Cc1ccc(C(C)C(=O)O)cc1 (stereo unspecified) [IBUPROFEN],,,,,39,,,,,,
COc1cccc2c(NCc3ccco3)c3ccccc3nc12,50,54,62,36,38.37,83,98,71,,,
COc1ccc2nc3ccccc3c(NC(=S)NCC3CCCO3)c2c1 (racemic),8,8,21,24,29.57,20,27,41,,,
COc1ccc2nc3ccccc3c(NC(=S)NCCc3cccs3)c2c1,34,28,46,42,34.08,35,74,45,,,
COc1ccc2nc3ccccc3c(NCC3CCCO3)c2c1 (racemic),42,11,,,20.16,61,,,41,37,9
CC(=O)O[C@H]1C(=O)[C@@]2(C)[C@H]([C@H](OC(=O)c3ccccc3)[C@]3(O)C[C@H](OC(=O)[C@H](O)[C@@H](NC(=O)c4ccccc4)c4ccccc4)C(C)=C1C3(C)C)[C@]1(OC(C)=O)CO[C@@H]1C[C@@H]2O [PACLITAXEL],65,75,58,51,,61,58,84,,,
